The source of these data is US20250177406A1, “PHARMACEUTICAL COMPOSITION FOR TREATING TUMORS” (Eisai R&D Management Co., Ltd., priority 2022, published 2025).

Like-named read-outs stand apart in the source and are kept apart here.

The subject of experiment [1] is xenograft model with the KRAS G12C mutation-positive human bladder cancer cell line UM-UC-3. As to conditions: UM-UC-3 xenograft, E7386 25 mg/kg, sotorasib 100 mg/kg, once per day, oral.
Experiment [2] relates to xenograft model with the KRAS G12C mutation-positive human non-small cell lung cancer cell line NCI-H358. Briefly: Antitumor effect of combined administration with adagrasib in xenograft model (tumor volume). The experiment is classed as in vivo, nude mice. On the set-up: unit not given beside the values. The note with it: adagrasib 10 mg/kg, once per day, oral. Here is the method: Experimental conditions for drug efficacy test using mice with different cell lines (suspension media, cell counts for transplantation, lineages of mice, administered drugs, days of initiation of administration, test periods) were shown in Table 5. Each cell line was prepared with suspension medium to reach an intended cell count for transplantation, and the resulting suspension was subcutaneously transplanted into nude mice (6-week-old, female) at the body flank.
The long diameter and short diameter of tumors generated in each mouse were measured with a Digimatic Caliper (manufactured by Mitutoyo Corp.) twice a week from day 1 as the day of initiation of administration to the final day of the test.
The tumor volume was calculated by the following formula.
Numbers in Table 6 each indicate mean±standard error (SEM) of tumor volume. In the test carried out, six mice were used per group.

The test system of experiment [3] is xenograft model with the KRAS G12C mutation-positive human colorectal cancer cell line SW837. As to conditions: sotorasib 100 mg/kg, once per day, oral.
Experiment [4] concerns xenograft model with the KRAS G12C mutation-positive human non-small cell lung cancer cell line NCI-H358. The note with it: sotorasib 100 mg/kg, once per day, oral.
Experimental: Matrigel/HBSS (50:50) was added to a KRAS G12C mutation-positive human non-small cell lung cancer cell line, NCI-358 cells, to prepare a cell suspension of 8×10^6 cells. The cell suspension was subcutaneously transplanted into nude mice (CAnN.Cg-Foxn1 nu/CrlCrlj, from Charles River Laboratories Japan, Inc.) at the body flank. Six mice were used per group. The date of transplantation was defined as day 1. […] No drug was administered to the control group.
The date of the initiation of administration was defined as day 1. On days 4, 8, 11, and 15, the long diameter and short diameter of tumors generated in each mouse were measured with a Digimatic Caliper (manufactured by Mitutoyo Corp.).
Experiment [5] has as its system KRAS G12D mutation-positive human endometrial cancer cell line HEC-1-B. As to the kind of experiment: Cell growth inhibitory activity of combined treatment, ultra-low adsorption plate, CellTiter-Glo 3D, 5 days. The note with it: 120 h, MRTX1133 alone. The experiment is classed as cell-based. For orientation: In ATP-based viability assays light output follows the ATP content of the culture.
Experimental: (§1) With different KRAS mutation-positive cell lines, combined treatment of the compound represented by formula (I) and a KRAS inhibitor was evaluated on growth inhibitory activity. […] Cells were seeded in 96-well flat-bottomed ultra-low adsorption plate (manufactured by Corning Incorporated) at 5000 cells/well, and cultured at 5% CO2 and 37° C. for 1 day. […] The drug solutions were prepared by diluting their DMSO stocks with medium to specific concentrations, and added in such a manner that the volume of the culture medium reached 100 μL/well after addition of the drugs. After the culture for 5 days, 30 μL of CellTiter-Glo 3D Reagent (manufactured by Promega Corporation) was added to each well and reacted under shading for 30 minutes, and 50-μL portions were then transferred into a separate white 96-well plate (manufactured by Greiner Bio-One International GmbH), and the emission intensity of luciferase was measured with a plate reader (manufactured by PerkinElmer, Inc.). The measurement values were defined as the relative cell counts.

The subject of experiment [6] is KRAS G12D mutation-positive human bile duct cancer cell line SNU-869. Described as above. Type of experiment: cell-based. The note with it: 120 h, SNU-869, MRTX1133 alone.
Experimental: as §1

Take `C=CCN1CC(=O)N2[C@@H](Cc3ccc(O)cc3F)C(=O)N(Cc3cccc(N4CC(N5CCN(CC)CC5)C4)n3)C[C@@H]2N1C(=O)NCc1ccccc1` [E7386, (6S,9aS)-N-benzyl-8-((6-(3-(4-ethylpiperazin-1-yl)azetidin-1-yl)pyridin-2-yl)methyl)-6-((2-fluoro-4-hydroxyphenyl)methyl)-4,7-dioxo-2-(prop-2-en-1-yl)-octahydro-1H-pyrazino[2,1-c][1,2,4]triazine-1-carboxamide]: the “tumor volume, mean ± SEM” value is reported as 337.4 ± 20.9 in experiment [1] (Day 5); 1487.0 ± 59.7 in experiment [1] (Day 12); 2526.8 ± 123.1 in experiment [1] (Day 15); 251.2 ± 8.1 in experiment [2] (Day 4, E7386 25 mg/kg); 327.4 ± 24.9 in experiment [2] (Day 8, E7386 25 mg/kg); 445.0 ± 26.3 in experiment [2] (Day 11, E7386 25 mg/kg). Besides, the “tumor volume, mean ± SEM” value in experiment [2] (Day 15, E7386 25 mg/kg) is reported as 579.1 ± 45.1; in experiment [2] (Day 18, E7386 25 mg/kg), 729.2 ± 56.7; in experiment [3] (Day 5, E7386 25 mg/kg), 221.5 ± 9.5; in experiment [3] (Day 12, E7386 25 mg/kg), 340.9 ± 17.5; in experiment [4] (Day 11, E7386 25 mg/kg), 519.9 ± 34.1; in experiment [4] (Day 15, E7386 25 mg/kg) it was 714.4 ± 55.5.
Consider `C#Cc1c(F)ccc2cc(O)cc(-c3ncc4c(N5CC6CCC(C5)N6)nc(OC[C@@]56CCCN5C[C@@H](F)C6)nc4c3F)c12` [MRTX1133, 4-(4-((1R,5S)-3,8-diazabicyclo[3.2.1]octan-3-yl)-8-fluoro-2-(((2R,7aS)-2-fluorohexahydro-1H-pyrrolidin-7a-yl)methoxy)pyrodo[4,3-d]pyrimidin-7-yl)-5-et hynyl-6-fluoronaphthalen-2-ol], for which the values for the GI50 in experiment [5] and in experiment [6] were 5.37 nM and 1.79 nM, respectively.

As a reminder, the GI50 is the concentration giving 50% growth inhibition.
